The target of assay [1] is T1, NIH-3T3 cells overexpressing human IGF-1R (Homo sapiens, UniProt P08069).
T1 construct: expressed in transfected cells; host or cells: NIH-3T3 (mouse fibroblasts)
As to the kind of experiment: IGF-1R cellular autophosphorylation (DELFIA). It is filed as cell-based. The essentials:
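Receptor autophosphorylation measured by DELFIA, capturing IGF-1R or IRβ and detecting with europium anti-pTyr, reported as percent of IGF-1- or insulin-stimulated signal. Compounds (30 uM to 1.5 nM) added 2 h before ligand, then 15 min stimulation (IGF-1 30 ng/ml or insulin 3 ug/ml).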

A further assay concerns the target T2, human IR (hIR) (Homo sapiens, UniProt P06213).
T2 construct: containing amino acid residues 979-1382 of human IR; made in house; host or cells: Sf9 cells (baculovirus), same process as hIGF1R
As to the kind of experiment: TR-FRET kinase assay of purified hIR. As to conditions: activated hIR 0.5 nM, 10 μM ATP, values given as pIC50 category. The class given is biochemical. For orientation: TR-FRET usually uses a lanthanide donor and a delayed reading to cut background.

Another assay concerns the target T3, human IGF1R (hIGF1R) (Homo sapiens, UniProt P08069).
T3 construct: containing amino acid residues 957-1367 of human IGF1R; made in house; host or cells: Sf9 cells (baculovirus)
As to the kind of experiment: TR-FRET kinase assay of purified hIGF1R. It is filed as biochemical. As to conditions: activated hIGF1R 0.5 nM, 10 μM ATP, values given as pIC50 category, read-out: IGF-1R pIC50 (converted).

The target in assay [2] is T4, NIH-3T3 cells overexpressing human IR (Homo sapiens, UniProt P06213).
T4 construct: expressed in transfected cells; host or cells: NIH-3T3 (mouse fibroblasts)
As to the kind of experiment: IR cellular autophosphorylation (DELFIA). The class given is cell-based. As to conditions: 2 h compound, insulin 3 ug/ml for 15 minutes, IC50 category. The procedure:
NIH-3T3 cells overexpressing human IGF-1R or IR were plated in 96-well plates (10,000 cells/well) in culture media containing 10% fetal bovine serum and incubated at 37° C. in a 5% CO2 incubator. Twenty four hours post-plating, cells were treated with different concentrations of test compounds ranging from 30 uM to 1.5 nM. Two hours after compound addition, cells were stimulated with either human IGF-1 (30 ng/ml) or insulin (3 ug/ml) for 15 minutes. Cell lysates are analyzed for phosphorylated receptors using dissociation enhanced lanthanide fluor-immuno assay (DELFIA) with anti-IGF-1R (MAB391, R&D Systems, Minneapolis, Minn.) or anti-IRβ (sc-711, Santa Cruz Biotechnology, Santa Cruz, Calif.) capture antibody and europium-labeled anti-pTyr antibody (Eu-N1 PT66, Perkin Elmer, Waltham, Mass.) for detection. The fluorescence signal for cells treated with compounds was expressed as percent relative to 100% stimulation (IGF-1 or insulin stimulated signal).

The next assay concerns Colo205. The experiment in a line: Inhibition of cell proliferation (CellTiter-Glo or InCell analyzer), Colo205. To be noted: Homo sapiens, COLO 205, 72 h / 3 days, values given as IC50 category. It is filed as cell-based. On the procedure: (§1) Cell proliferation was measured by either CellTiter-Glo (measures cellular ATP level as a surrogate for total cell number) or by InCell analyzer (counts number of nuclei as a measure of cell number).
(§2) For CellTiter-Glo assay, exponentially growing cell lines of different tumor origins, cultured in appropriate media containing 10% fetal bovine serum at 37° C. in a 5% CO2 incubator, were plated at low density (less than 2000cells/well) in 96-well plates. Twenty four hours post-plating, cells were treated with different concentrations of test compounds ranging from 30 uM to 1.5 nM. Several wells were left untreated as a control. Seventy two hours post-treatment, cell numbers were determined using 50-100 ul per well of CellTiter-Glo (Promega #G7573). Plates were incubated at 37° C. for 30 minutes and the chemiluminescent signal was read on the Victor V or Envison 2100 reader.
(§3) For InCell Analyser assay, various cell lines of different tumor origins were grown to 70-80% confluency in appropriate culture media containing 10% fetal bovine serum at 37° C. in a 5% CO2 incubator. On day −1, cells were seeded at 2 densities in 384-well plates and incubated at 37° C. overnight. Stock compound plates were prepared in advance which contained dimethyl sulfoxide (DMSO) alone and a 9-point half-log decreasing dose range of the compound in DMSO. The compound plates were stored at −80° C. and each plate was only thawed once and used. On day 0, the main assay plates received compound or DMSO via a sonic delivery system (ECHO). The highest final concentration of compound of the dose range in the culture plates was 10 uM. These plates were cultured at 37° C. for 3 days. […] On day 3, the compound treated plates were stained and fixed to measure proliferation, apoptosis, and mitotic index using an InCelL1000 analyser. A nuclear stain was used to identify cells in the wells. By counting the number of nuclei, the proliferation index of compound treated groups were calculated as a percentage relative to the DMSO control, which was set to 100%. The IC50 values were calculated using model 205 in ExcelFit.
(§4) IC50 (nM) values for compounds of select examples were categorized by relative inhibition of cell proliferation.
A general note: Cellular ATP, detected with luciferase, serves as a proxy for viable cell number.

The next assay has as its target ALK (Homo sapiens, UniProt Q9UM73). As to the kind of experiment: ALK enzyme assay (HTRF). As to conditions: 0.25 nM ALK, 15.0 μM ATP, values given as pIC50 category. It is filed as biochemical. The essentials:
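Isolated ALK phosphorylates a biotinylated tyrosine peptide, 120 min at 20° C; anti-phosphotyrosine Eu-cryptate/streptavidin-XL665 HTRF read after 60 min with EDTA-containing detection mix.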

Another assay concerns NCI-H929. As to the kind of experiment: Inhibition of cell proliferation (CellTiter-Glo or InCell analyzer), NCI-H929. The class given is cell-based. To be noted: Homo sapiens, 72 h / 3 days, values given as IC50 category. The procedure:
as §1, §2, §3, §4

ALK, sequence (Q9UM73 19-1620): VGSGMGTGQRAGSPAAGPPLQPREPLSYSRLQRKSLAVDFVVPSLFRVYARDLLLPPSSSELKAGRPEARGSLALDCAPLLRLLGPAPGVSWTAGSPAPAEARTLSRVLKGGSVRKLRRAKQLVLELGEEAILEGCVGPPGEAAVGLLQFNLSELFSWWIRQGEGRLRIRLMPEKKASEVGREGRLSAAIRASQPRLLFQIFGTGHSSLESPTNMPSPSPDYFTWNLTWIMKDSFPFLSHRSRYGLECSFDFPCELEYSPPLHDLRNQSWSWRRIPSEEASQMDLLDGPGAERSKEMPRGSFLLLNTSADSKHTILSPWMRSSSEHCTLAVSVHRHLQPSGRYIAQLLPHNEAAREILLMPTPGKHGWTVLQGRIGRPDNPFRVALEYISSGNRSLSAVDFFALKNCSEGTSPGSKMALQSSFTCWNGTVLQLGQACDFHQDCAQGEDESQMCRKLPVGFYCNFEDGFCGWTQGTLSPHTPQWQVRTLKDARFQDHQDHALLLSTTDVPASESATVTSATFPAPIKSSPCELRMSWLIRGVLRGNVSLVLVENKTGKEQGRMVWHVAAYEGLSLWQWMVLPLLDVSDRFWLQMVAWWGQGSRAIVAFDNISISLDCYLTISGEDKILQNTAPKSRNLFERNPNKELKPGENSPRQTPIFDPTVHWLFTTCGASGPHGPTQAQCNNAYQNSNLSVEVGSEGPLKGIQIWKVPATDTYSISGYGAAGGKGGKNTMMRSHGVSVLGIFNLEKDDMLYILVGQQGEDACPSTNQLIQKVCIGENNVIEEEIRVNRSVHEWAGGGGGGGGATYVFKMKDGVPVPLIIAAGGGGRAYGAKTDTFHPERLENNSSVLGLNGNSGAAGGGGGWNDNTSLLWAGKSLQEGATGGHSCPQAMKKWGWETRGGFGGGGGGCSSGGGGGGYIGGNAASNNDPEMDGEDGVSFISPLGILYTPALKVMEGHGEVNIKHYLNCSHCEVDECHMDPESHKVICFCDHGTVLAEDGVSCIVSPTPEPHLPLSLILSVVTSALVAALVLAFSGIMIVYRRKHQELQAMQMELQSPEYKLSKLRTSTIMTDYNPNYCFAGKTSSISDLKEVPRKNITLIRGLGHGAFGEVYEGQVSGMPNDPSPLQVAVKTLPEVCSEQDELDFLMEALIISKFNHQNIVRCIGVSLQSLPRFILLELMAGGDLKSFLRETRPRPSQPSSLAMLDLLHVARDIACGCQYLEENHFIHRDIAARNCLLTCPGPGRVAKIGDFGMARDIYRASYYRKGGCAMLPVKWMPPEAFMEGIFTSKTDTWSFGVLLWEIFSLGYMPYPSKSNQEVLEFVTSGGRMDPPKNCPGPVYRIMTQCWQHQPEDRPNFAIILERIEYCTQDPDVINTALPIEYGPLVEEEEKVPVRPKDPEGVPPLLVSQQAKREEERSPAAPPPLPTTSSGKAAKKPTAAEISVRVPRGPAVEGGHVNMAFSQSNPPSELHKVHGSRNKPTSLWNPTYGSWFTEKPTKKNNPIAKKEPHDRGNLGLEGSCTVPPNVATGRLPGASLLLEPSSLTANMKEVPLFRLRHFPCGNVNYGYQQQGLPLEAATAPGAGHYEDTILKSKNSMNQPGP
T2 sequence (P06213 979-1382): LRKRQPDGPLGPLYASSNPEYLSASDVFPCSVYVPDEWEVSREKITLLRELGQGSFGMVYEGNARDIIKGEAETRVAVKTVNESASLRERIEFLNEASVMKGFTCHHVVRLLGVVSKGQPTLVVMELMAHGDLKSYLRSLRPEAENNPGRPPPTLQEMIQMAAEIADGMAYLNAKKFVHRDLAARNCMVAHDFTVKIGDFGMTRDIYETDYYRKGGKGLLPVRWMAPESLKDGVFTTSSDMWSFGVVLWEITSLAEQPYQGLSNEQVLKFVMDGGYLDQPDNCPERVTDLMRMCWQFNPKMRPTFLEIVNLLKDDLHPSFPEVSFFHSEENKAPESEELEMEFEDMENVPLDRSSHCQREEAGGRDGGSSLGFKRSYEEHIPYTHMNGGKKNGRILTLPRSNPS
T1 sequence (P08069 31-1367): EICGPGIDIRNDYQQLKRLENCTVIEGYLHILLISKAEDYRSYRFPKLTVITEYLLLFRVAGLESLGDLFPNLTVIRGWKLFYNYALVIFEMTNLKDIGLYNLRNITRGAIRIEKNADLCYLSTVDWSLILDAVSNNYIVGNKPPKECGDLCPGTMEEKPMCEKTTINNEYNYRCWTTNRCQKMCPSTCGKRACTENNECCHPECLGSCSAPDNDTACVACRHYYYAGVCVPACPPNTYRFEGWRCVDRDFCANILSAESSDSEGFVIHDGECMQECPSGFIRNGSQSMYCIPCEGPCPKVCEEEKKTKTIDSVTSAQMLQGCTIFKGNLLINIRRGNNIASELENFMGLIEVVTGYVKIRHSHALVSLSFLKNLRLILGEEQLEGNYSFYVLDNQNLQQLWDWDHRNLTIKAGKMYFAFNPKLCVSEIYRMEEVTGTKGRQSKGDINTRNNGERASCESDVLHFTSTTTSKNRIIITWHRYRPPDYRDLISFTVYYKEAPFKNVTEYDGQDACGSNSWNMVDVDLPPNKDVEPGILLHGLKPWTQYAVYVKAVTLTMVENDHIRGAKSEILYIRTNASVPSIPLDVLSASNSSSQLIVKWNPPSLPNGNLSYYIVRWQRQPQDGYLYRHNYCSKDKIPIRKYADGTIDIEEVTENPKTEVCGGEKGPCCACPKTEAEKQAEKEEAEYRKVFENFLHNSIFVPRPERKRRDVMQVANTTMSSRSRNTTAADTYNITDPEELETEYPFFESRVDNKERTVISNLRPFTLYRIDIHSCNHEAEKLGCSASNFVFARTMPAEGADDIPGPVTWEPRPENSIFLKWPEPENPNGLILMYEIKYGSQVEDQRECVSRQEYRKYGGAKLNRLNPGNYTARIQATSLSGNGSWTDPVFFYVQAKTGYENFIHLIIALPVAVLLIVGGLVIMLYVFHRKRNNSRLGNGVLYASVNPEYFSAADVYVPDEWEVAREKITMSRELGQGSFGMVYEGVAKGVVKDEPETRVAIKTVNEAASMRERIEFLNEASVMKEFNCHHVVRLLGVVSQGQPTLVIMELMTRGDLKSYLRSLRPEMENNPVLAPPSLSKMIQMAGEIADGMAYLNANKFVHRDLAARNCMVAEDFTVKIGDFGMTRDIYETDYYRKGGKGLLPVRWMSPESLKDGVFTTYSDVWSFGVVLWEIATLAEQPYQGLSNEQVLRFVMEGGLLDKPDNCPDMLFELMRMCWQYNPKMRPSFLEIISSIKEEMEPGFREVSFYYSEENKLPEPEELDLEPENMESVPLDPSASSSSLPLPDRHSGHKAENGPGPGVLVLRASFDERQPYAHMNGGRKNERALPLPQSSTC
T4 sequence (P06213 28-1382): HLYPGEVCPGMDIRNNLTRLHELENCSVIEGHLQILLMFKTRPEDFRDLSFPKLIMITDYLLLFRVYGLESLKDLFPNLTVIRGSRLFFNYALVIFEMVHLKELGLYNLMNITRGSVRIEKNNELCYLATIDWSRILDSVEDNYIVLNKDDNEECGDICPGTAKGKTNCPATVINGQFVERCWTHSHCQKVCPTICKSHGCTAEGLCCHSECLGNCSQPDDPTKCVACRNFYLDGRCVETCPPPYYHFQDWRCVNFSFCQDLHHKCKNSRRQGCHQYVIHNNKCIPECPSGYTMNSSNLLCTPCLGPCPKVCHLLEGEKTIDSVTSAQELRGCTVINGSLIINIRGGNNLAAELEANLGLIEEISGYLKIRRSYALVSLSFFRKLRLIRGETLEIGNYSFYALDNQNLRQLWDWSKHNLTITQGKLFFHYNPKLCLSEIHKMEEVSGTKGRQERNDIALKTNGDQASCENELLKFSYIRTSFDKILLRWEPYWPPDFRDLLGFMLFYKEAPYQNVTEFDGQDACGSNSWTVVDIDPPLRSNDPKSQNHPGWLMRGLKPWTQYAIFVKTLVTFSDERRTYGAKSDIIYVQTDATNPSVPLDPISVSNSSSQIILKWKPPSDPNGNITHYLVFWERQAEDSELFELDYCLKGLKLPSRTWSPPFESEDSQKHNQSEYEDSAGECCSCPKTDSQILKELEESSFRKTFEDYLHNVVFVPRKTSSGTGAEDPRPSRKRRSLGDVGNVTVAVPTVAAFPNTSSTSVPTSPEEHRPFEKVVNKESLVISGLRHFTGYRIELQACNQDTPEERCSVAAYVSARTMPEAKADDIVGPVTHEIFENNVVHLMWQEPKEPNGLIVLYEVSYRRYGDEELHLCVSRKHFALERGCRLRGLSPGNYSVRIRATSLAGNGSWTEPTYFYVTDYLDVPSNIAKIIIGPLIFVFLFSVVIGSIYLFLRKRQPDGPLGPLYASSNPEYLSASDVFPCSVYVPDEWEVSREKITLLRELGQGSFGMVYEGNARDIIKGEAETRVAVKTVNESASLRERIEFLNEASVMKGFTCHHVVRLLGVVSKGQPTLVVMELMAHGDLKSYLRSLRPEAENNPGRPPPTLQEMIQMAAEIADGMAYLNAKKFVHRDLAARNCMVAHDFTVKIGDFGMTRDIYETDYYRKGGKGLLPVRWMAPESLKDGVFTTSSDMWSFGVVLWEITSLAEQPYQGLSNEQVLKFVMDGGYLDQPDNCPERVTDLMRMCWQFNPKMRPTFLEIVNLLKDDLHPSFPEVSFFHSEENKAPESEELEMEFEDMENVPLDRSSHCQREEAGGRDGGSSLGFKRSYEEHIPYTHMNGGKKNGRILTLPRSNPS
T3 sequence (P08069 957-1367): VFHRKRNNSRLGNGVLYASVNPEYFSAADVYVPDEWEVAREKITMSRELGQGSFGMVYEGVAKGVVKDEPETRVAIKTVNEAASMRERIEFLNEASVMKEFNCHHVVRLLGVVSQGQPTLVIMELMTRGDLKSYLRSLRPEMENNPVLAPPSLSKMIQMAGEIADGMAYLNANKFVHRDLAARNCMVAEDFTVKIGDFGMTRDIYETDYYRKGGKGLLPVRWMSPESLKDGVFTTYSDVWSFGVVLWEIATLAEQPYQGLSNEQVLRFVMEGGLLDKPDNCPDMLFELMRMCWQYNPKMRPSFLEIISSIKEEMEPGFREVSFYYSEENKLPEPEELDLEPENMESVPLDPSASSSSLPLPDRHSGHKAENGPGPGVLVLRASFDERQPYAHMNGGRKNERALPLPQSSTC

On to `CCc1cc(N2CCN(C(C)C)CC2)ccc1Nc1nc(Nc2cc(F)ccc2C(N)=O)c2cc[nH]c2n1` [Example 69, 2-{[2-({2-ethyl-4-[4-(1-methylethyl)-1-piperazinyl]phenyl}amino)-1H-pyrrolo[2,3-d]pyrimidin-4-yl]amino}-4-fluorobenzamide], for which the IC50 in assay [1] was 100 to 500 nM; against human IR (hIR), 1.26 to 3.98 nM; on human IGF1R (hIGF1R) it was 1.26 to 3.98 nM; in assay [2], 100 to 500 nM; in the assay with Colo205, 250 to 1000 nM.
Take `CNC(=O)c1c(F)cccc1Nc1nc(Nc2cc3c(cc2OC)CCN3C(=O)[C@H](C)N(C)C)nc2[nH]ccc12` [Example 194, 2-[(2-{[1-(N,N-dimethyl-L-alanyl)-5-(methyloxy)-2,3-dihydro-1H-indol-6-yl]amino}-1H-pyrrolo[2,3-d]pyrimidin-4-yl)amino]-6-fluoro-N-methylbenzamide]: the IC50 on ALK is 0.251 to 1 nM; on human IR (hIR), 1.26 to 3.98 nM; in the assay with NCI-H929, less than 250 nM; on human IGF1R (hIGF1R) it was 1.26 to 3.98 nM; in the assay with Colo205, less than 250 nM.
Take `CNC(=O)c1cc(F)ccc1Nc1nc(Nc2ccc(N3CCN(C(C)C)CC3)cc2OC)nc2[nH]ccc12` [Example 65, 5-fluoro-N-methyl-2-[(2-{[4-[4-(1-methylethyl)-1-piperazinyl]-2-(methyloxy)phenyl]amino}-1H-pyrrolo[2,3-d]pyrimidin-4-yl)amino]benzamide]: the IC50 in assay [1] was 100 to 500 nM; on ALK it was 1.26 to 3.98 nM; at human IGF1R (hIGF1R), 1.26 to 3.98 nM; in assay [2], 100 to 500 nM; in the assay with Colo205 it was 250 to 1000 nM.
Turning to `CNC(=O)c1c(F)cccc1Nc1nc(Nc2cc3c(cc2OC)C(C)(C)CCN3C(=O)CN(C)C)nc2[nH]ccc12` [Example 226, 2-[(2-{[1-(N,N-dimethylglycyl)-4,4-dimethyl-6-(methyloxy)-1,2,3,4-tetrahydro-7-quinolinyl]amino}-1H-pyrrolo[2,3-d]pyrimidin-4-yl)amino]-6-fluoro-N-methylbenzamide], the IC50 against human IR (hIR) was 0.251 to 1 nM; with NCI-H929, less than 250 nM; on human IGF1R (hIGF1R), 0.251 to 1 nM; in the assay with Colo205 it was 250 to 1000 nM.
`COc1cc2c(cc1Nc1nc(Nc3ccc(F)c(F)c3C(=O)NC(C)C)c3cc[nH]c3n1)N(C(=O)CN(C)C)CCC2` [Example 164, 6-[(2-{[1-(N,N-dimethylglycyl)-6-(methyloxy)-1,2,3,4-tetrahydro-7-quinolinyl]amino}-1H-pyrrolo[2,3-d]pyrimidin-4-yl)amino]-2,3-difluoro-N-(1-methylethyl)benzamide]: the IC50 is 1.26 to 3.98 nM against ALK; 5.01 to 158 nM at human IR (hIR); 250 to 1000 nM in the assay on NCI-H929; 5.01 to 200 nM on human IGF1R (hIGF1R); more than 1000 nM in the assay on Colo205.
On to `COc1cc(N2CCOC[C@@H]2C)ccc1Nc1nc(Nc2cc(F)cc(F)c2C(N)=O)c2cc[nH]c2n1` [Example 90, 2,4-difluoro-6-[(2-{[4-[(3S)-3-methyl-4-morpholinyl]-2-(methyloxy)phenyl]amino}-1H-pyrrolo[2,3-d]pyrimidin-4-yl)amino]benzamide], for which the IC50 was less than 100 nM in assay [1]; 1.26 to 3.98 nM against human IR (hIR); 1.26 to 3.98 nM on human IGF1R (hIGF1R); less than 100 nM in assay [2]; 250 to 1000 nM in the assay with Colo205.
Consider `CNC(=O)c1c(F)cc(Cl)cc1Nc1nc(Nc2cc3c(cc2OC)CCCN3C(=O)CN(C)C)nc2[nH]ccc12` [Example 172, 4-chloro-2-[(2-{[1-(N,N-dimethylglycyl)-6-(methyloxy)-1,2,3,4-tetrahydro-7-quinolinyl]amino}-1H-pyrrolo[2,3-d]pyrimidin-4-yl)amino]-6-fluoro-N-methylbenzamide], for which the IC50 at ALK is 1.26 to 3.98 nM; with NCI-H929 it was less than 250 nM; with Colo205 it was 250 to 1000 nM.
Consider `COc1cc(N2CCN(C(C)C)CC2)ccc1Nc1nc(Nc2ccc(F)cc2C(=O)NCCO)c2cc[nH]c2n1` [Example 66, 5-fluoro-N-(2-hydroxyethyl)-2-[(2-{[4-[4-(1-methylethyl)-1-piperazinyl]-2-(methyloxy)phenyl]amino}-1H-pyrrolo[2,3-d]pyrimidin-4-yl)amino]benzamide], for which the IC50 in assay [1] is more than 500 nM; on ALK, 1.26 to 3.98 nM; at human IGF1R (hIGF1R) it was 5.01 to 200 nM; in assay [2], more than 500 nM; with Colo205, less than 250 nM.
In the case of `COc1cc2c(cc1Nc1nc(Nc3cc(Cl)cc(F)c3C(N)=O)c3cc[nH]c3n1)N(C(=O)CN(C)C)CCC2` [Example 171, 4-chloro-2-[(2-{[1-(N,N-dimethylglycyl)-6-(methyloxy)-1,2,3,4-tetrahydro-7-quinolinyl]amino}-1H-pyrrolo[2,3-d]pyrimidin-4-yl)amino]-6-fluorobenzamide], the IC50 against ALK is 0.251 to 1 nM; in the assay with NCI-H929, less than 250 nM; with Colo205, less than 250 nM.
On to `CNC(=O)c1c(F)cccc1Nc1nc(Nc2cc3c(cc2C)CCCN3C(=O)CN(C)C)nc2[nH]ccc12` [Example 247, 2-[(2-{[1-(N,N-dimethylglycyl)-6-methyl-1,2,3,4-tetrahydro-7-quinolinyl]amino}-1H-pyrrolo[2,3-d]pyrimidin-4-yl)amino]-6-fluoro-N-methylbenzamide], for which the IC50 in the assay on NCI-H929 was 250 to 1000 nM; at human IGF1R (hIGF1R), 5.01 to 200 nM; with Colo205 it was more than 1000 nM.
Regarding `CNC(=O)c1c(F)cccc1Nc1nc(Nc2cc3c(cc2OC)CCN3C(=O)CN(C)C)nc2[nH]ccc12` [Example 116, 2-[(2-{[1-(N,N-dimethylglycyl)-5-(methyloxy)-2,3-dihydro-1H-indol-6-yl]amino}-1H-pyrrolo[2,3-d]pyrimidin-4-yl)amino]-6-fluoro-N-methylbenzamide], the IC50 was less than 250 nM with NCI-H929 and 250 to 1000 nM with Colo205.
Turning to `Cc1ccc(NC(=O)CN(C)C)cc1Nc1nc(Nc2ccccc2C(=O)NCc2ccc(F)cc2)c2cc[nH]c2n1` [Example 27, 2-{[2-({5-[(N,N-dimethylglycyl)amino]-2-methylphenyl}amino)-1H-pyrrolo[2,3-d]pyrimidin-4-yl]amino}-N-[(4-fluorophenyl)methyl]benzamide], the IC50 in assay [1] is more than 500 nM; at ALK, 5.01 to 200 nM; against human IR (hIR), 1.26 to 3.98 nM; at human IGF1R (hIGF1R), 5.01 to 200 nM; in assay [2], more than 500 nM.
Take `Cc1ccc(NC(=O)CN(C)C)cc1Nc1nc(Nc2ccc(F)cc2C(N)=O)c2cc[nH]c2n1` [Example 62, 2-{[2-({5-[(N,N-dimethylglycyl)amino]-2-methylphenyl}amino)-1H-pyrrolo[2,3-d]pyrimidin-4-yl]amino}-5-fluorobenzamide]: the IC50 in assay [1] is 100 to 500 nM; on ALK, 5.01 to 200 nM; at human IR (hIR), 0.251 to 1 nM; on human IGF1R (hIGF1R), 1.26 to 3.98 nM; in assay [2], 100 to 500 nM.
